Source: patent publication US20220146526A1, “METHOD FOR EVALUATING SAMPLE, ANALYSIS METHOD, METHOD FOR DETECTING DEGRADED SAMPLE, MARKER FOR DETECTING DEGRADED BLOOD PLASMA SAMPLE, AND MARKER FOR DETECTING DEGRADED SERUM SAMPLE” (SHIMADZU CORPORATION, priority 2019, published 2022)
One block for each molecule: values may come before it.

Key:
Assay type in all cases: physicochemical, human
[1] = GC/MS of blood plasma sample: time from blood collection to centrifugation (Table A); conditions: blood collection to centrifugation; for Rate of increase or decrease: detection intensity relative to 1 at 15 minutes, after 12 hours; for Increase or decrease: detection intensity, after 12 hours vs 15 minutes
Protocol: (§1) At room temperature, 5 mL of blood from a healthy subject was taken into a blood-collecting vessel containing EDTA, and the blood-collecting vessel was inverted for mixing, then cooled, and allowed to stand at 4° C. Here, in order to investigate how the detection intensity of molecules contained in the sample was affected in a case where the time to cooling was set to 5 minutes or more as compared to that in a case where the time to cooling was set to 1 minute or less, preparations were performed under both the former condition and the latter condition. After standing, the blood sample was subjected to centrifugation under a condition of 4° C., 3000 rpm, and 15 minutes. […] After centrifugation, the blood-collecting vessel was left to stand at room temperature for 30 minutes, and the blood plasma was isolated during this 30 minutes. The obtained blood plasma sample was frozen and stored. Here, in order to investigate how the detection intensity of molecules contained in the sample was affected in cases where freezing and thawing was performed 4 times, 6 times, and 10 times after freezing as compared to that in a case where freezing and thawing was performed 2 times after freezing, freezing and thawing was performed under the respective conditions of 2, 4, 6, and 10 times.
(§2) Frozen blood plasma samples and serum samples were subjected to GC/MS or LC/MS. In GC/MS, the blood plasma samples and serum samples were subjected to methoxymation and trimethylsilylation and then introduced to GC-MS.
(§3) GC/MS was conducted using GCMS·TQ8040 (Shimadzu Corporation) that was a GC·MS equipped with AOC·20i (Shimadzu Corporation) as an autosampler.
(§4) Column: BPX5 (inner diameter of 0.25 mm, length of 30 m, and film thickness of 0.25 μm) (SGE)
(§5) Column temperature: maintained at 60° C. for 2 minutes, then raised at 15° C./min, and maintained at 330° C. for 3 minutes.
(§6) Inlet temperature: 250° C.
(§7) Carrier gas control mode: constant linear velocity of 39.0 cm/sec
(§8) Sample introduction method: split (split ratio of 30:1) Injection volume: 1 μL
(§9) Ionization method: electron ionization
(§10) Ionization current: 60 μA
(§11) Interface temperature: 280° C.
(§12) Ion source temperature: 200° C.
(§13) Mode: multiple reaction monitoring (MRM)
The rate of increase or decrease in Table A is the value of detection intensity relative to 1 that is the detection intensity in a case where the time from blood collection to centrifugation is set to 15 minutes.

[2] = GC/MS of serum sample: number of times of freezing and thawing (Table I); design: key to Rate of increase or decrease / Rate of increase or decrease (first value, increase): detection intensity relative to 2 freeze-thaw cycles = 1; conditions: for Rate of increase or decrease: detection intensity relative to 1 at 2 times
Protocol: (§14) After standing, the blood sample was subjected to centrifugation under a condition of room temperature, 3500 rpm, and 5 minutes. […] After centrifugation, the blood-collecting vessel was left to stand at room temperature, and the serum was isolated during this time. Here, in order to investigate how the detection intensity of molecules contained in the sample was affected in cases where the time during which the blood-collecting vessel was left at room temperature was set to 1 hour and 6 hours as compared to that in a case where the time was set to 30 minutes, preparations were performed under the respective conditions of 30 minutes, 1 hour, and 6 hours. The obtained serum sample was frozen and stored. Here, in order to investigate how the detection intensity of molecules contained in the sample was affected in cases where freezing and thawing was performed 4 times, 6 times, and 10 times after freezing as compared to that in a case where freezing and thawing was performed 2 times after freezing, freezing and thawing was performed under the respective conditions of 2, 4, 6, and 10 times.
as §2, §3, §4, §5, §6, §7, §8, §9, §10, §11, §12, §13
The rate of increase or decrease in Table I is the value of detection intensity relative to 1 that is the detection intensity in a case where the number of times of freezing and thawing is set to 2 times.

[3] = GC/MS of serum sample: time from centrifugation to isolation (Table H); design: key to Rate of increase or decrease / Rate of increase or decrease (first value, increase): detection intensity relative to 1 at 30 min centrifugation-to-isolation; conditions: for Rate of increase or decrease: detection intensity relative to 1 at 30 minutes, after 1 hour; for Increase or decrease: detection intensity, after 1 hour vs 30 minutes
Protocol: as §14, §2, §3, §4, §5, §6, §7, §8, §9, §10, §11, §12, §13
The rate of increase or decrease in Table H is the value of detection intensity relative to 1 that is the detection intensity in a case where the time from centrifugation to isolation is set to 30 minutes.

[4] = GC/MS of serum sample: time from blood collection to centrifugation (Table G); conditions: blood collection to centrifugation; for Rate of increase or decrease: detection intensity relative to 1 at 15 minutes, after 8 hours; for Increase or decrease: detection intensity, after 8 hours vs 15 minutes
Protocol: as §14, §2, §3, §4, §5, §6, §7, §8, §9, §10, §11, §12, §13
The rate of increase or decrease in Table G is the value of detection intensity relative to 1 that is the detection intensity in a case where the time from blood collection to centrifugation is set to 15 minutes.

[5] = GC/MS of blood plasma sample: number of times of freezing and thawing (Table C); conditions: for Rate of increase or decrease: detection intensity relative to 1 at 2 times; for Increase or decrease: detection intensity
Protocol: as §1, §2, §3, §4, §5, §6, §7, §8, §9, §10, §11, §12, §13
The rate of increase or decrease in Table C is the value of detection intensity relative to 1 that is the detection intensity in a case where the number of times of freezing and thawing is set to 2 times.

Compound: O=C(O)C(O)Cc1ccc(O)cc1 (stereo not shown) [4-Hydroxyphenyllactic acid]
- Rate of increase or decrease [1]: 1.33
- Increase or decrease [1]: Increase
- Rate of increase or decrease [3]: 0.64
- Increase or decrease [3]: Decrease

Compound: CCCCC/C=C\C/C=C\CCCCCCCC(=O)O [Linoleic acid]
- Rate of increase or decrease [1]: 1.34
- Increase or decrease [1]: Increase

Compound: CC(C)CCC[C@@H](C)[C@H]1CC[C@H]2[C@@H]3CC=C4C[C@@H](O)CC[C@]4(C)[C@H]3CC[C@]12C [Cholesterol]
- Rate of increase or decrease [1]: 1.38
- Increase or decrease [1]: Increase

Compound: CCCCCCCCCCCCCC(=O)O [Myristic acid]
- Rate of increase or decrease [1]: 1.55
- Increase or decrease [1]: Increase
- Rate of increase or decrease [4]: 1.30
- Increase or decrease [4]: Decrease

Compound: NCCc1c[nH]c2ccccc12 [Tryptamine]
- Rate of increase or decrease ([5]; freezing and thawing 10 times): 0.69
- Increase or decrease ([5]; freezing and thawing 10 times vs 2 times): Decrease

Compound: OB(O)O [Boric acid]
- Rate of increase or decrease [3]: 2.06
- Increase or decrease [3]: Increase
- Rate of increase or decrease ([2]; serum, GC/MS, freezing and thawing 4 times): 0.63
- Increase or decrease ([2]; detection intensity, serum, GC/MS, freezing and thawing 4 times vs 2 times): Decrease
- Rate of increase or decrease ([5]; freezing and thawing 4 times): 1.56
- Increase or decrease ([5]; freezing and thawing 4 times vs 2 times): Increase

Other lines, results leading:

- Rate of increase or decrease [1]: 2.13
- Increase or decrease [1]: Increase
- Rate of increase or decrease ([2]; 10 times of freezing and thawing): 1.33
- Number of times when compound is affected ([2]; serum sample, GC/MS, detection intensity changed by 30% or more vs 2 times of freezing and thawing): 10 times
- Increase or decrease ([2]; serum sample, GC/MS, detection intensity vs 2 times of freezing and thawing): Increase
Compound: CCCCCCCCCCCCCCCCCC(=O)O [Stearic acid]

- Rate of increase or decrease [1]: 4.05
- Increase or decrease [1]: Increase
Compound: CCCCCCCC/C=C\CCCCCCCC(=O)O [Oleic acid]

- Rate of increase or decrease [4]: 0.66
- Increase or decrease [4]: Decrease
- Rate of increase or decrease ([5]; freezing and thawing 6 times): 0.68
- Increase or decrease ([5]; freezing and thawing 6 times vs 2 times): Decrease
Compound: O[C@H]1[C@H](O)[C@@H](O)[C@H](O)[C@@H](O)[C@@H]1O [Scyllo-inositol]
